# Source: US20090149332A1, “METHODS FOR DETERMINING THE ACTIVITY OF ADAM-TS PROTEASES USING THIOPEPTOLIDES” (SANOFI-AVENTIS DEUTSCHLAND GMBH, priority 2005, published 2009)
# [ ]: non-standard residue; d: D form. The star is where a group is joined. Dnp = O=[N+]([O-])c1ccc(*)c([N+](=O)[O-])c1; Mca = COc1ccc2c(CC(=O)*)cc(=O)oc2c1; Nva = CCC[C@H](N)C(=O)O; Dap = NC[C@H](N)C(=O)O; Mob = COc1ccc(C*)cc1
# Tests used:
# Type in all cases: biochemical
# ADAMTS = test: Colorimetric thiopeptolide conversion assay (Example 2); conditions: Example 2, ADAMTS-1 and ADAMTS-4 tested
# Procedure: (§1) TNCB Buffer (see Example 1)
# (§2) ADAMTS (Invitek Gesellschaft für Biotechnik & Biodesign mbH, Berlin, Germany) 5 μg of ADAMTS-1 were diluted with 2200 μL, and 5 μg of ADAMTS-4 were diluted with 600 μl of TNCB buffer.
# (§3) 1) DTNB Solution (5,5′-dithiobis(2-nitrobenzoic Acid):
# (§4) A 40 mM stock solution in DMSO was prepared:
# (§5) Then 27.5 μL of DTNB stock solution were diluted with 522 μL of water.
# (§6) A 100 mM stock solution in DMSO was prepared. For use, 55 μL of thiopeptilide stock solution were diluted with 500 μL of TNCB buffer.
# (§7) Immediately before use, 550 μl of DTNB were mixed with 550 μl of thiopeptilide.
# (§8) The measurements were carried out in 96-multiwell plates (half area plates, flat bottom, clear, polystyrene, No. 3695) (Corning Costar, Acton, USA).
# (§9) 10 μL of enzyme solution and 10 μL of H2O were mixed, and the reaction was started by adding 10 μL of substrate solution.
# (§10) Microtiter plate photometer: Molecular Devices Sunnyvale, USA. SpectraMax 190.
# ADAMTS-1 = test: Colorimetric thiopeptolide conversion assay, Ellman's reaction with DTNB (Example 2); design: key: +: Increase in the optical signal was observed over 5 minutes; conditions: absorption at 415 nm for 5 min
# Procedure: as §1, §2, §3, §4, §5, §6, §7, §8, §9, §10
# ADAMTS-4 = test: as above; design: key: +: Increase in the optical signal was observed over 5 minutes; conditions: absorption at 415 nm for 5 min
# Procedure: as §1, §2, §3, §4, §5, §6, §7, §8, §9, §10
# MMP-3cd [1] = target: T1, MMP-3cd (Homo sapiens, UniProt P08254); test: as above; design: key: +: Increase in the optical signal was observed over 5 minutes; conditions: absorption at 415 nm for 5 min
# T1 construct: The catalytic domains of the human recombinant MMP-3 and MMP-8 protein, MMP-3cd and MMP-8cd; purchased Biomol International L. P. Pennsylvania, USA SE-109
# Procedure: as §1, §3, §4, §5, §6, §7, §8, §9, §10
# MMP-8cd [2] = target: T2, MMP-8cd (Homo sapiens, UniProt P22894); test: as above; design: key: +: Increase in the optical signal was observed over 5 minutes; conditions: absorption at 415 nm for 5 min
# T2 construct: The catalytic domains of the human recombinant MMP-3 and MMP-8 protein, MMP-3cd and MMP-8cd; purchased Biomol International L. P. Pennsylvania, USA SE-255
# Procedure: as §1, §3, §4, §5, §6, §7, §8, §9, §10
# MMP-3cd [3] = target: T1, MMP-3cd; test: Fluorometric substrate conversion assay (Comparative Example 1); design: key to Conversion of fluorimetric substrate by MMP-3 cd (increase in the optical signal): +: Increase in the optical signal was observed over 5 minutes; conditions: for Conversion of fluorimetric substrate by MMP-3 cd (increase in the optical signal): fluorescence measured for 5 minutes, λex/λem per substrate
# Procedure: (§11) The catalytic domains of the human recombinant MMP-3 and MMP-8 protein, MMP-3cd and MMP-8cd, can be purchased from, for example, Biomol International L. P. Pennsylvania, USA; catalog number SE-109 and SE-255 respectively. The truncated forms of ADAM-TS1 and ADAM-TS4 protease can likewise be purchased from, for example, Invitek, Gesellschaft für Biotechnik & Biodesign mbH, Berlin, Germany, catalog number 30400402 and 30400102, respectively.
# (§12) 100 mM tris(hydroxymethyl)aminomethane, adjusted to pH 7.5 with HCl-100
# (§13) 10 mM substrates (see Table) in DMSO, immediately before use, 2 μL of the substrate stock solution were diluted with 130 μL of H2O.
# (§14) MMP-3cd (2.3 μg/mL), MMP-8cd (0.6 μg/mL), ADAMTS-1 (2.3 μg/mL) and ADAMTS-4 (3.3 μg/mL) were diluted with TNCB buffer.
# (§15) 10 μL of enzyme solution were mixed with 10 μL of H2O, and the reaction was started by adding 10 μL of substrate solution.
# (§16) The fluorescence was measured in a TECAN Spectrafluor Plus fluorescence apparatus; Excitation/Emission (see Table). This entailed measuring the fluorescence for 5 minutes on each occasion.
# MMP-8cd [4] = target: T2, MMP-8cd; test: as above; design: key to Conversion of fluorimetric substrate by MMP-8 cd (increase in the optical signal): +: Increase in the optical signal was observed over 5 minutes; conditions: for Conversion of fluorimetric substrate by MMP-8 cd (increase in the optical signal): fluorescence measured for 5 minutes, λex/λem per substrate
# Procedure: as §11, §12, §13, §14, §15, §16
# T1 sequence (P08254 100-272 limits assumed): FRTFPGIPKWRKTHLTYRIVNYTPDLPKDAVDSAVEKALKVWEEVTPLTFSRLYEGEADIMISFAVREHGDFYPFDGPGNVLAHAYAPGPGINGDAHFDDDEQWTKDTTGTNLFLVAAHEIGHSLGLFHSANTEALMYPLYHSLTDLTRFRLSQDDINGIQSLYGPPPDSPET
# T2 sequence (P22894 100-262 limits assumed): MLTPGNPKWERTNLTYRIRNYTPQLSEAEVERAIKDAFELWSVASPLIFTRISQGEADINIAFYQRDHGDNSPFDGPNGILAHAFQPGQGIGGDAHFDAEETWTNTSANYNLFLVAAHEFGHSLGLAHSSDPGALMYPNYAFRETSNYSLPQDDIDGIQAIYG
Molecule,Conversion of fluorimetric substrate by MMP-3 cd (increase in the optical signal) (MMP-3cd [3]),Conversion of fluorimetric substrate by MMP-8 cd (increase in the optical signal) (MMP-8cd [4]),further results
"CCOC(=O)CNC(=O)[C@H](CC(C)C)NC(=O)C(CC(C)C)SC(=O)CNC(=O)[C@H](CC(C)C)NC(=O)[C@@H]1CCCN1C(C)=O (stereo partly drawn) [Compound 1, Ac—P-L-G-[(S)-2-mercapto-4-methylpentanoyl]-L-G-OEt]",,,Conversion by ADAMTS (in words) (ADAMTS): converted; Conversion of colorimetric substrate in Ellman's reaction by ADAMTS-1 (ADAMTS-1): +; Conversion of colorimetric substrate in Ellman's reaction by ADAMTS-4 (ADAMTS-4): +; Conversion of colorimetric substrate in Ellman's reaction by MMP-3 cd (MMP-3cd [1]): +; Conversion of colorimetric substrate in Ellman's reaction by MMP-8 cd (MMP-8cd [2]): +
"CCCC(SC(=O)C(C)NC(=O)[C@H](CC(C)C)NC(=O)[C@@H]1CCCN1C(C)=O)C(=O)N[C@@H](Cc1c[nH]c2ccccc12)C(N)=O (stereo partly drawn) [Compound 2, Ac—P-L-A-[(S)-2-mercaptopentanoyl]-W—NH2]",,,Conversion by ADAMTS (in words) (ADAMTS): not converted; Conversion of colorimetric substrate in Ellman's reaction by MMP-3 cd (MMP-3cd [1]): +; Conversion of colorimetric substrate in Ellman's reaction by MMP-8 cd (MMP-8cd [2]): +
"(7-methoxycoumarin-4-yl)acetyl-Pro-Leu-Gly-Leu-3-(2′,4′-dinitro-phenyl)-L-2,3-diaminopropionyl-Ala-Arg-NH2 [Mca-P-L-G-L-Dap(Dnp)-A-R—NH2]",+,+,Conversion with the protease MMP-3 (in words) (MMP-3cd [3]; see experimental section): possible to convert; Conversion with the protease MMP-8 (in words) (MMP-8cd [4]; see experimental section): possible to convert
"Dnp-P-L-G-L-W-A-R—NH2 (Dnp-PLGLWAR-NH2; SMILES CC(C)C[C@H](NC(=O)CNC(=O)[C@H](CC(C)C)NC(=O)[C@@H]1CCCN1c1ccc([N+](=O)[O-])cc1[N+](=O)[O-])C(=O)N[C@@H](Cc1c[nH]c2ccccc12)C(=O)N[C@@H](C)C(=O)N[C@@H](CCCNC(=N)N)C(N)=O) [fluorimetric MMP substrate, Bachem M-1855]",+,,
Dnp-P-β-cyclohexyl-A-G-C(Me)-H-A-K—(N-Me-Abz)-NH2,+,+,
Mca-GKPILFFRLK(Dnp)R-NH2,+,,
Mca-P-β-cyclohexyl-A-G-Nva-H-A-Dpa-NH2,+,+,
Mca-PLAC(Mob)WAR[Dap](Dnp)-NH2,+,+,
Mca-PLAQAV[Dap](Dnp)RSSSR-NH2,+,,
Mca-PLA[Nva][Dap](Dnp)AR-NH2,+,+,
Mca-RPLALWR[Dap](Dnp)-NH2,+,+,
Mca-R—P—K—P—V-E-Nval-W—R—K-(Dnp)-NH2,+,,
Mca-R—P—K—P—Y-A-Nva-Met-K(Dnp)-NH2,+,+,
NBD-eAhx-R—P—K—P-L-A-Nva-W—K(DMACA)-NH2,+,+,
